Laboratory results: patent publication US20160184459A1, “CANCER CELL SPECIFIC IMAGING PROBES AND METHODS OF USE” (THE RESEARCH FOUNDATION FOR THE STATE UNIVERSITY OF NEW YORK, priority 2013, published 2016)

Legend:
[1] = tested on: non-malignant Caco-2 cells; test: Cell counting, Caco-2; assay type: cell-based, human; conditions: 54 μM, 5 d
Procedure: FIG. 9. The colon cancer cell lines were grown for 5 d either with vehicle control DMSO (gray symbols) or 54 μM BKAc-Puro (red and blue symbols), and cell number was determined at the indicated time points.
Cell number was determined by cell counting using improved Neubauer hemacytometer. Cell viability was calculated as the number of viable cells divided by the total number of cells using Trypan Blue Stain (Invitrogen) to distinguish non-viable cells. Data were obtained from duplicated samples with quadruplicate measurements. MTS based cell viability assay was performed using CellTiter 96 Aqueous Cell Proliferation Assay (Promega) according to the manufacturer's instruction. Either 1 μl of DMSO alone or variable concentrations of BKAc-Puro or Puro in DMSO were added to the cell lines seeded at 5×10^4 cells per well in 96-well tissue culture plates in 100 μl of the growth medium, followed by 3-5 d incubation at 37° C. with 5% CO2 atmosphere. […] After additional 2-3 h incubation, the absorbance of the formazan at 490 nm was measured by the microplate reader. […] Determination of non-viable cells using PI staining was performed by adding 1 μg/ml of PI solution (Sigma) to the cell culture, prior to the examination under fluorescence microscopy (Axiovert 3, Carl Zeiss) through a×32 objective equipped with a digital imaging processor (Infinity 3, Lumenera).

[2] = tested on: Puro-incorporated proteins in HCT116, HT29, CCD841-CoN and Caco-2 cells; test: Immunoblotting of Puro-incorporated proteins in cell lysates; assay type: cell-based, human; conditions: 16.9 μM, 20 h
Procedure: (§1) FIG. 27. Levels of Puro-incorporated proteins in the cells were monitored by immunoblotting. Indicated cell lines were treated either with vehicle control DMSO or Boc-KAc-Puro (16.9 μM) in the presence or absence of TSA (0.5 μM) for 20 h, followed by preparation of cell lysates. The lower panel (anti-α-Tubulin) serves as a loading control.
as §1, with “28.” for “27.”, “Puro (2.1” for “Boc-KAc-Puro (16.9”, “16” for “20”, “lysates. […]” for “lysates.”
Cultured cells or tissue samples were sonicated in RIPA lysis buffer (1% NP-40, 0.1% SDS, 50 mM Tris-HCl pH 7.4, 150 mM NaCl, 0.5% sodium deoxycholate, 1 mM EDTA) supplemented with PMSF and protease inhibitor cocktail (Roche) on ice followed by clarification. Protein lysates were separated on sodium dodecyl sulfate-polyacrylamide gels and transferred onto nitrocellulose membranes (Whatman). The primary antibodies used were anti-puromycin (3RH11, KeraFAST) and anti-α-tubulin (Sigma-Aldrich). Proteins of interest were detected with anti-mouse secondary antibody by chemiluminescence (ECL Kit, GE Healthcare Life Sciences).

COc1ccc(CC(NC(=O)C(CCCCNC(C)=O)NC(=O)OC(C)(C)C)C(=O)NC2C(O)[C@H](n3cnc4c(N(C)C)ncnc43)O[C@@H]2CO)cc1 (stereo partly drawn) [BKAc-Puro, N-[3′-(α-Amino-p-methoxyhydrocinnamamido)-3′-deoxy-N,N-dimethyldenosinyl)-N-α-(t-butoxycarbonyl]-N-ε-acetyl-L-lysineamide]
Cell proliferation (cell number) [1]: allowed them to proliferate to confluency
Intensity of Puro incorporation, malignant versus normal and non-malignant cells [2]: substantially greater in malignant cancer cells
Intensity of Puro incorporation in the presence of TSA ([2]; TSA 0.5 μM): compromised intensity
